According to PubChem BioAssay (NCI):
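Dose response: 5 concentrations. Exposure: 48 h. Format: 96-well plates. Endpoint: linear interpolation; highest concentration if not reached. GI50: concentration for 50% inhibition of growth. TGI: concentration producing complete growth inhibition.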

Assays:
Test in all cases: inhibition of tumour cell growth, NCI panel, 48 h
786-0 renal = system: 786-0 renal
A498 renal = system: A498 renal
A549 NSCLC = system: A549 NSCLC
ACHN renal = system: ACHN renal
BT-549 breast = system: BT-549 breast
CAKI-1 renal = system: CAKI-1 renal
CCRF-CEM leukemia = system: CCRF-CEM leukemia
COLO 205 colon = system: COLO 205 colon
DU-145 prostate = system: DU-145 prostate
EKVX NSCLC = system: EKVX NSCLC
HCC-2998 colon = system: HCC-2998 colon
HCT-116 colon = system: HCT-116 colon
HCT-15 colon = system: HCT-15 colon
HL-60(TB) leukemia = system: HL-60(TB) leukemia
HOP-62 NSCLC = system: HOP-62 NSCLC
HOP-92 NSCLC = system: HOP-92 NSCLC
HS 578T breast = system: HS 578T breast
HT29 colon = system: HT29 colon
IGROV1 ovarian = system: IGROV1 ovarian
K-562 leukemia = system: K-562 leukemia
KM12 colon = system: KM12 colon
LOX IMVI melanoma = system: LOX IMVI melanoma
M14 melanoma = system: M14 melanoma
MALME-3M melanoma = system: MALME-3M melanoma
MCF7 breast = system: MCF7 breast
MDA-MB-231 breast = system: MDA-MB-231 breast
MDA-MB-435 = system: MDA-MB-435
MDA-MB-468 breast = system: MDA-MB-468 breast
MOLT-4 leukemia = system: MOLT-4 leukemia
NCI-H226 lung = system: NCI-H226 lung
NCI-H23 lung = system: NCI-H23 lung
NCI-H460 lung = system: NCI-H460 lung
NCI-H522 lung = system: NCI-H522 lung
NCI/ADR-RES ovarian = system: NCI/ADR-RES ovarian
OVCAR-3 ovarian = system: OVCAR-3 ovarian
OVCAR-4 ovarian = system: OVCAR-4 ovarian
OVCAR-5 ovarian = system: OVCAR-5 ovarian
OVCAR-8 ovarian = system: OVCAR-8 ovarian
PC-3 prostate = system: PC-3 prostate
RPMI-8226 leukemia = system: RPMI-8226 leukemia
RXF 393 renal = system: RXF 393 renal
SF-268 CNS = system: SF-268 CNS
SF-295 CNS = system: SF-295 CNS
SF-539 CNS = system: SF-539 CNS
SK-MEL-2 melanoma = system: SK-MEL-2 melanoma
SK-MEL-28 melanoma = system: SK-MEL-28 melanoma
SK-MEL-5 melanoma = system: SK-MEL-5 melanoma
SK-OV-3 ovarian = system: SK-OV-3 ovarian
SN12C renal = system: SN12C renal
SNB-19 CNS = system: SNB-19 CNS
SNB-75 CNS = system: SNB-75 CNS
SR leukemia = system: SR leukemia
SW-620 colon = system: SW-620 colon
T-47D breast = system: T-47D breast
TK-10 renal = system: TK-10 renal
U251 CNS = system: U251 CNS
UACC-257 melanoma = system: UACC-257 melanoma
UACC-62 melanoma = system: UACC-62 melanoma
UO-31 renal = system: UO-31 renal

CC[C@@]12CC(C(=O)OC)=C3Nc4cc5c(cc4[C@@]34CCN(C[C@H]3O[C@H]31)[C@@H]24)[C@@H]1[C@H](O5)[C@@H](O)[C@@]2(CC)CC(C(=O)OC)=C3Nc4cc(OC)ccc4[C@@]34CCN1[C@@H]24
GI50 (786-0 renal): 267 nM | TGI (786-0 renal): > 54000 nM | GI50 (A498 renal): 698 nM | TGI (A498 renal): 24700 nM | GI50 (A549 NSCLC): 706 nM | TGI (A549 NSCLC): > 54000 nM | GI50 (ACHN renal): 727 nM | TGI (ACHN renal): 15200 nM | GI50 (BT-549 breast): 307 nM | TGI (BT-549 breast): > 13100 nM | GI50 (CAKI-1 renal): 142 nM | TGI (CAKI-1 renal): > 54000 nM | GI50 (CCRF-CEM leukemia): 376 nM | TGI (CCRF-CEM leukemia): > 54000 nM | GI50 (COLO 205 colon): 356 nM | TGI (COLO 205 colon): 2770 nM | GI50 (DU-145 prostate): 5670 nM | TGI (DU-145 prostate): > 54000 nM | GI50 (EKVX NSCLC): 928 nM | TGI (EKVX NSCLC): > 54000 nM | GI50 (HCC-2998 colon): 423 nM | TGI (HCC-2998 colon): 1950 nM | GI50 (HCT-116 colon): 253 nM | TGI (HCT-116 colon): 2930 nM | GI50 (HCT-15 colon): 293 nM | TGI (HCT-15 colon): 4030 nM | GI50 (HL-60(TB) leukemia): 74.8 nM | TGI (HL-60(TB) leukemia): 1270 nM | GI50 (HOP-62 NSCLC): 313 nM | TGI (HOP-62 NSCLC): > 54000 nM | GI50 (HOP-92 NSCLC): 248 nM | TGI (HOP-92 NSCLC): > 43700 nM | GI50 (HS 578T breast): 128 nM | TGI (HS 578T breast): > 54000 nM | GI50 (HT29 colon): 228 nM | TGI (HT29 colon): > 54000 nM | GI50 (IGROV1 ovarian): 548 nM | TGI (IGROV1 ovarian): > 22800 nM | GI50 (K-562 leukemia): 218 nM | TGI (K-562 leukemia): > 54000 nM | GI50 (KM12 colon): 939 nM | TGI (KM12 colon): > 54000 nM | GI50 (LOX IMVI melanoma): 273 nM | TGI (LOX IMVI melanoma): 1250 nM | GI50 (M14 melanoma): 416 nM | TGI (M14 melanoma): > 54000 nM | GI50 (MALME-3M melanoma): 605 nM | TGI (MALME-3M melanoma): > 43100 nM | GI50 (MCF7 breast): 174 nM | TGI (MCF7 breast): > 54000 nM | GI50 (MDA-MB-231 breast): 330 nM | TGI (MDA-MB-231 breast): > 40300 nM | GI50 (MDA-MB-435): 320 nM | TGI (MDA-MB-435): > 54000 nM | GI50 (MDA-MB-468 breast): 181 nM | TGI (MDA-MB-468 breast): 1200 nM | GI50 (MOLT-4 leukemia): 1220 nM | TGI (MOLT-4 leukemia): 23200 nM | GI50 (NCI-H226 lung): 485 nM | TGI (NCI-H226 lung): > 54000 nM | GI50 (NCI-H23 lung): 890 nM | TGI (NCI-H23 lung): 20200 nM | GI50 (NCI-H460 lung): 1370 nM | TGI (NCI-H460 lung): > 54000 nM | GI50 (NCI-H522 lung): 182 nM | TGI (NCI-H522 lung): 2840 nM | GI50 (NCI/ADR-RES ovarian): 731 nM | TGI (NCI/ADR-RES ovarian): 20700 nM | GI50 (OVCAR-3 ovarian): 453 nM | TGI (OVCAR-3 ovarian): 13400 nM | GI50 (OVCAR-4 ovarian): 656 nM | TGI (OVCAR-4 ovarian): > 54000 nM | GI50 (OVCAR-5 ovarian): 1520 nM | TGI (OVCAR-5 ovarian): > 54000 nM | GI50 (OVCAR-8 ovarian): 736 nM | TGI (OVCAR-8 ovarian): > 54000 nM | GI50 (PC-3 prostate): 657 nM | TGI (PC-3 prostate): > 54000 nM | GI50 (RPMI-8226 leukemia): 136 nM | TGI (RPMI-8226 leukemia): 2210 nM | GI50 (RXF 393 renal): 1150 nM | TGI (RXF 393 renal): 6010 nM | GI50 (SF-268 CNS): 2990 nM | TGI (SF-268 CNS): > 54000 nM | GI50 (SF-295 CNS): 891 nM | TGI (SF-295 CNS): > 44700 nM | GI50 (SF-539 CNS): 416 nM | TGI (SF-539 CNS): > 54000 nM | GI50 (SK-MEL-2 melanoma): 1610 nM | TGI (SK-MEL-2 melanoma): > 39000 nM | GI50 (SK-MEL-28 melanoma): 1380 nM | TGI (SK-MEL-28 melanoma): > 54000 nM | GI50 (SK-MEL-5 melanoma): 370 nM | TGI (SK-MEL-5 melanoma): 2290 nM | GI50 (SK-OV-3 ovarian): 336 nM | TGI (SK-OV-3 ovarian): 5480 nM | GI50 (SN12C renal): 1560 nM | TGI (SN12C renal): > 54000 nM | GI50 (SNB-19 CNS): 660 nM | TGI (SNB-19 CNS): > 40400 nM | GI50 (SNB-75 CNS): 63.1 nM | TGI (SNB-75 CNS): > 54000 nM | GI50 (SR leukemia): 254 nM | TGI (SR leukemia): > 46500 nM | GI50 (SW-620 colon): 1810 nM | TGI (SW-620 colon): > 54000 nM | GI50 (T-47D breast): 466 nM | TGI (T-47D breast): > 54000 nM | GI50 (TK-10 renal): 219 nM | TGI (TK-10 renal): 52300 nM | GI50 (U251 CNS): 911 nM | TGI (U251 CNS): > 54000 nM | GI50 (UACC-257 melanoma): 436 nM | TGI (UACC-257 melanoma): > 54000 nM | GI50 (UACC-62 melanoma): 168 nM | TGI (UACC-62 melanoma): 3830 nM | GI50 (UO-31 renal): 167 nM | TGI (UO-31 renal): > 26000 nM
